The source of these data is patent publication US20230399312A1, “SUBSTITUTED PYRIMIDINES AND METHODS OF USE” (THERAVANCE BIOPHARMA R&D IP, LLC, priority 2020, published 2023).

The target of experiment [1] is T1, recombinant human ALK5 (TGF-βR1) protein (Homo sapiens, UniProt P36897).
T1 construct: purchased Life Technologies PR9075A
T1 sequence (P36897 34-503): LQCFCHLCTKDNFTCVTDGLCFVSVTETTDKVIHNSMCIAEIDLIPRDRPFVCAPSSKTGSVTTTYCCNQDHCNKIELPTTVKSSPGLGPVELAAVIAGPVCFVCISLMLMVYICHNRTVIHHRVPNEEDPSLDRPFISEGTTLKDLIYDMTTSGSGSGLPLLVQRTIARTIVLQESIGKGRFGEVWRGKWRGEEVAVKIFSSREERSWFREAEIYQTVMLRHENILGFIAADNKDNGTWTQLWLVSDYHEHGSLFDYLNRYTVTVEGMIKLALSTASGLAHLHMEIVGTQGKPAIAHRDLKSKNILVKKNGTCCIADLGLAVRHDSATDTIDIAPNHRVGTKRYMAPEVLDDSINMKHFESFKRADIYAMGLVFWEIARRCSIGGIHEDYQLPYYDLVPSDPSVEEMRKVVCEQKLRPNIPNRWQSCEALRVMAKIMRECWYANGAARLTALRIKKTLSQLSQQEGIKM
The experiment can be described thus: Biochemical ALK5 (TGF-βR1) assay to measure pKi (LANCE Ultra ULight kinase assay). The settings on record: apparent pKi, converted from pIC50 by Cheng-Prusoff. A digest of the protocol:
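Enzyme was preincubated with compound for 60 min at room temperature, then ATP (added from a 125 μM 5× stock with 2 mM DTT) started a 60 min reaction at 37 °C. EDTA plus Eu-anti-phospho-Topo2α (Thr1342) antibody stopped it; TR-FRET pIC50 values were converted to pKi by Cheng-Prusoff.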
On the technique in general: Time-resolved FRET reads energy transfer from a long-lived donor to a nearby acceptor.

Experiment [2] deals with TGF-β-stimulated SMAD3 phosphorylation in BEAS-2B cells. Put plainly: Cellular ALK5 potency assay, inhibition of TGF-β stimulated pSMAD3 formation in BEAS-2B cells. The following applies: Homo sapiens, pSMAD3, TGF-β 10 ng/mL, read-out: BEAS2B pIC50 (converted). In kind it is cell-based. The gist of the method:
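Potency is expressed as pIC50, based on dose-dependent reduction of TGF-β-induced pSMAD3 AlphaLISA signal relative to stimulated cells without compound. BEAS-2B cells received compound 1 h before a 30 min, 10 ng/mL TGF-β challenge.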

For the compound `Cc1cccc(-c2nccc(Nc3ccnc(Nc4ccc(N5CCC(N)C5)cc4)n3)n2)n1` (centres unmarked) [Compound 289, N2-[4-(3-aminopyrrolidin-1-yl)phenyl]-N4-[2-(6-methyl-2-pyridyl)pyrimidin-4-yl]pyrimidine-2,4-diamine], the Ki in experiment [1] was 0.0398 to 0.316 nM. In addition, the IC50 in experiment [2] is 25.1 to 158 nM.

Turning to `Cc1cccc(-c2nccc(Nc3ccnc(Nc4cccc(NC(=O)C5CCN(C)CC5)c4)n3)n2)n1` [Compound 145, 1-methyl-N-[3-[[4-[[2-(6-methyl-2-pyridyl)pyrimidin-4-yl]amino]pyrimidin-2-yl]amino]phenyl]piperidine-4-carboxamide], in experiment [1], the Ki was 0.0398 to 0.316 nM. For the same compound, the IC50 in experiment [2] was 25.1 to 158 nM.

Turning to `Cc1cccc(-c2nccc(Nc3ccnc(Nc4ccc(NC(=O)C5CCNCC5)c(C)c4)n3)n2)n1` [Compound 265, N-[2-methyl-4-[[4-[[2-(6-methyl-2-pyridyl)pyrimidin-4-yl]amino]pyrimidin-2-yl]amino]phenyl]piperidine-4-carboxamide], in experiment [1], the Ki is 0.0398 to 0.316 nM. Further, the IC50 in experiment [2] was at most 20 nM.

Consider `Cc1cccc(-c2nc(Nc3ccnc(Nc4ccc(C(=O)NC5CCNC5)cc4)n3)c3cccn3n2)n1` (centres unmarked) [Compound 1036, 4-[[4-[[2-(6-methyl-2-pyridyl)pyrrolo[2,1-f][1,2,4]triazin-4-yl]amino]pyrimidin-2-yl]amino]-N-pyrrolidin-3-yl-benzamide], for which the Ki in experiment [1] is 0.0398 to 0.316 nM. Moreover, the IC50 in experiment [2] is 25.1 to 158 nM.

In the case of `Fc1ccccc1-c1nccc(Nc2ccnc(Nc3ccc(N4CCOCC4)cc3)n2)n1` [Compound 399, N4-[2-(2-fluorophenyl)pyrimidin-4-yl]-N2-(4-morpholinophenyl)pyrimidine-2,4-diamine], the Ki in experiment [1] is 3.98 to 31.6 nM. The IC50 in experiment [2] was 25.1 to 158 nM.

For the compound `Cc1cccc(-c2nccc(Nc3ccnc(Nc4ccc(CN5CCC(C(=O)OC6CCN(C)C6)CC5)cc4)n3)n2)n1` (centres unmarked) [Compound 248, (1-methylpyrrolidin-3-yl) 1-[[4-[[4-[[2-(6-methyl-2-pyridyl)pyrimidin-4-yl]amino]pyrimidin-2-yl]amino]phenyl]methyl] piperidine-4-carboxylate], in experiment [1], the Ki was 0.0398 to 0.316 nM. Besides, the IC50 in experiment [2] was 25.1 to 158 nM.

For the compound `Cc1cccc(-c2nccc(Nc3ccnc(Nc4ccc(N5CCOCC5)cn4)n3)n2)n1` [Compound 281, N4-[2-(6-methyl-2-pyridyl)pyrimidin-4-yl]-N2-(5-morpholino-2-pyridyl)pyrimidine-2,4-diamine], the Ki in experiment [1] was 0.398 to 3.16 nM. Also, the IC50 in experiment [2] was 25.1 to 158 nM.

With `Cc1cccc(-c2nccc(Nc3ccnc(Nc4csc(C(=O)NC5(CO)CCNC5)c4)n3)n2)n1` (centres unmarked) [Compound 40, N-[3-(hydroxymethyl)pyrrolidin-3-yl]-4-[[4-[[2-(6-methyl-2-pyridyl)pyrimidin-4-yl]amino]pyrimidin-2-yl]amino]thiophene-2-carboxamide], the Ki in experiment [1] was 0.0398 to 0.316 nM. Also, in experiment [2], the IC50 was 25.1 to 158 nM.

In the case of `Cc1cccc(-c2nccc(Nc3ccnc(Nc4ccc(C)c(CN5C6CCC5CNC6)c4)n3)n2)n1` [Compound 458, N2-[3-(3,8-diazabicyclo[3.2.1]octan-8-ylmethyl)-4-methyl-phenyl]-N4-[2-(6-methyl-2-pyridyl)pyrimidin-4-yl]pyrimidine-2,4-diamine], the Ki in experiment [1] is 0.0398 to 0.316 nM. The IC50 in experiment [2] was 25.1 to 158 nM.

As to `Fc1ccc(Cl)cc1-c1nccc(Nc2ccnc(Nc3ccc(NCCN4CCOCC4)cc3)n2)n1` [Compound 408, N4-[2-(5-chloro-2-fluoro-phenyl)pyrimidin-4-yl]-N2-[4-(2-morpholinoethylamino)phenyl] pyrimidine-2,4-diamine], the Ki in experiment [1] was 0.398 to 3.16 nM. Also, the IC50 in experiment [2] was 25.1 to 158 nM.

Take `Cc1cccc(-c2nccc(Nc3ccnc(Nc4ccc(CN5C[C@H](C)NC[C@H]5C)cc4)n3)n2)n1` [Compound 376, N2-[4-[[(2R,5S)-2,5-dimethylpiperazin-1-yl]methyl]phenyl]-N4-[2-(6-methyl-2-pyridyl)pyrimidin-4-yl]pyrimidine-2,4-diamine]: the Ki in experiment [1] is 0.0398 to 0.316 nM. Moreover, the IC50 in experiment [2] was 25.1 to 158 nM.

With `Cc1cccc(-c2nccc(Nc3ccnc(Nc4nc(CN5CCC[C@@H](C(=O)O[C@H]6CCN(C)C6)C5)cs4)n3)n2)n1` [Compound 508, (S)-1-methylpyrrolidin-3-yl (R)-1-((2-((4-((2-(6-methylpyridin-2-yl)pyrimidin-4-yl)amino)pyrimidin-2-yl)amino)thiazol-4-yl)methyl)piperidine-3-carboxylate], in experiment [1], the Ki is 0.398 to 3.16 nM. In experiment [2], the IC50 is 25.1 to 158 nM.

Consider `Cc1cccc(-c2nccc(Nc3ccnc(Nc4ccc(CN5CC(C(=O)O[C@@H]6CCNC6)C5)cc4)n3)n2)n1` [Compound 152, [(3R)-pyrrolidin-3-yl] 1-[[4-[[4-[[2-(6-methyl-2-pyridyl)pyrimidin-4-yl]amino]pyrimidin-2-yl]amino]phenyl]methyl] azetidine-3-carboxylate], for which the Ki in experiment [1] is 0.0398 to 0.316 nM. The IC50 in experiment [2] was 25.1 to 158 nM.

For the compound `Cc1cccc(-c2nccc(Nc3ccnc(Nc4cc(F)c(C(=O)N5CCNCC5)c(Cl)c4)n3)n2)n1` [Compound 2, [2-chloro-6-fluoro-4-[[4-[[2-(6-methyl-2-pyridyl)pyrimidin-4-yl]amino]pyrimidin-2-yl]amino]phenyl]-piperazin-1-yl-methanone], the Ki in experiment [1] was 0.398 to 3.16 nM. Besides, the IC50 in experiment [2] was 25.1 to 158 nM.

On to `Cc1cccc(-c2nccc(Nc3ccnc(Nc4csc(C(=O)NCC5(CO)CNC5)c4)n3)n2)n1` [Compound 378, N-[[3-(hydroxymethyl)azetidin-3-yl]methyl]-4-[[4-[[2-(6-methyl-2-pyridyl)pyrimidin-4-yl]amino]pyrimidin-2-yl]amino]thiophene-2-carboxamide], for which the Ki in experiment [1] was at most 0.0316 nM. The IC50 in experiment [2] is 25.1 to 158 nM.

Turning to `COC(=O)CCc1ccc(Nc2nccc(Nc3ccnc(-c4cccc(C)n4)n3)n2)cc1` [Compound 517, methyl 3-[4-[[4-[[2-(6-methyl-2-pyridyl)pyrimidin-4-yl]amino]pyrimidin-2-yl]amino]phenyl]propanoate], the Ki in experiment [1] is 0.398 to 3.16 nM. Moreover, the IC50 in experiment [2] is 200 to 1260 nM.

`Cc1cccc(-c2nccc(Nc3ccnc(Nc4ccc(CN5CCCC(C(=O)OC6CNC6)C5)cc4)n3)n2)n1` (centres unmarked) [Compound 138, azetidin-3-yl 1-[[4-[[4-[[2-(6-methyl-2-pyridyl)pyrimidin-4-yl]amino]pyrimidin-2-yl]amino]phenyl]methyl] piperidine-3-carboxylate]: in experiment [1], the Ki is 0.0398 to 0.316 nM. The IC50 in experiment [2] was 25.1 to 158 nM.

With `Cc1cccc(-c2nccc(Nc3ccnc(Nc4cccc(NC(=O)CC5CNC5)c4)n3)n2)n1` [Compound 385, 2-(azetidin-3-yl)-N-[3-[[4-[[2-(6-methyl-2-pyridyl)pyrimidin-4-yl]amino]pyrimidin-2-yl]amino]phenyl]acetamide], the Ki in experiment [1] was at most 0.0316 nM. In addition, in experiment [2], the IC50 is 25.1 to 158 nM.

In the case of `Cc1cccc(-c2nccc(Nc3ccnc(Nc4csc(C(=O)O[C@H]5C[C@@H](N)C5)c4)n3)n2)n1` [Compound 631, (3-aminocyclobutyl) 4-[[4-[[2-(6-methyl-2-pyridyl)pyrimidin-4-yl]amino]pyrimidin-2-yl]amino]thiophene-2-carboxylate], the Ki in experiment [1] is 0.0398 to 0.316 nM. For the same compound, the IC50 in experiment [2] was 25.1 to 158 nM.
